The source of these data is ChEMBL document CHEMBL5532665 (J Med Chem, 2024).

Data set [1] is described as follows: Selectivity ratio of ED50 for inhibition of gastrointestinal motility in fasted Kunming mouse model treated subcutaneously to ED50 for antinociceptive activity in Kunming mouse model administered subcutaneously measured for 5 to 15 mins by acetic acid-induced writhing test. It is filed as toxicity. Conditions: in vivo, route sc, read-out: Ratio ED50.
Data set [2] addresses T1, Delta-type opioid receptor (Homo sapiens, UniProt P41143). The data set is described as follows: Agonist activity at human DOR expressed in CHO-K1 cells co-expressing G-alpha15 by calcium mobilization assay. The class given is functional, cell-based.
Data set [3] addresses Kappa-type opioid receptor (Homo sapiens, UniProt P41145). The data set is described as follows: Agonist activity at human KOR expressed in CHO-K1 cells co-expressing G-alpha15 by calcium mobilization assay. It is filed as functional, cell-based. The conditions noted are these: cho-k1.
In data set [4] the target is T2, Mu-type opioid receptor (Homo sapiens, UniProt P35372). In words: Agonist activity at human MOR expressed in CHO-K1 cells co-expressing G-alpha15 by calcium mobilization assay. It is filed as functional, cell-based.
A short description of data set [5]: Stability in mouse plasma assessed as half life at 0.01 mol/L measured for 72 hrs by RP-HPLC analysis. It is filed as ADME, cell-free.
A short description of data set [6]: Toxicity in Kunming mouse model assessed as effect on locomotor co-ordination at 139 nmol/kg, sc measured for 10 to 40 mins by rotarod test. The class given is organism-based. Conditions: in vivo, time 10-40 min.
Data set [7] is described as follows: Selectivity ratio of ED50 for inhibition of gastrointestinal motility in fasted Kunming mouse model treated subcutaneously to ED50 for antinociceptive activity in Kunming mouse model administered subcutaneously by tail-flick test. Conditions: in vivo, route sc, read-out: Ratio ED50. The class given is toxicity.
For data set [8], the system named is Mus musculus. The data set is described as follows: Antinociceptive activity in Kunming mouse model assessed as latency of tail withdrawal at 13882 nmol/kg, sc measured for 60 mins by tail-flick test relative to control. It is filed as functional. Conditions: 1 h.
In data set [9] the test system is Mus musculus. The data set is described as follows: Antinociceptive activity in Kunming mouse model assessed as latency of tail withdrawal at 13882 nmol/kg, sc measured for 30 mins by tail-flick test relative to control. It is filed as functional. Conditions: 0.5 h.
In data set [10] the test system is Mus musculus. In words: Antinociceptive activity in Kunming mouse model assessed as latency of tail withdrawal at 13882 nmol/kg, sc measured for 10 mins by tail-flick test relative to control. It is filed as functional.
In data set [11] the test system is Mus musculus. The data set is described as follows: Antinociceptive activity in Kunming mouse model assessed as latency of tail withdrawal at 13882 nmol/kg, sc measured for 120 mins by tail-flick test relative to control. The conditions noted are these: 2 h. The class given is functional.
Data set [12] has as its system Mus musculus. The data set is described as follows: Antinociceptive activity in Kunming mouse model assessed as latency of tail withdrawal at 14157 nmol/kg, sc measured for 120 mins by tail-flick test relative to control. It is filed as functional. Conditions: 2 h.
Data set [13] deals with T1, Delta-type opioid receptor. In words: Agonist activity at human DOR expressed in CHO-K1 cells co-expressing G-alpha15 by calcium mobilization assay relative to control. It is filed as functional, cell-based. Conditions: filed as agonist.
Data set [14] concerns Mus musculus. In words: Antinociceptive activity in Kunming mouse model assessed as latency of tail withdrawal at 14157 nmol/kg, sc measured for 10 mins by tail-flick test relative to control. It is filed as functional.
Data set [15] deals with Mus musculus. The data set is described as follows: Antinociceptive activity in Kunming mouse model assessed as latency of tail withdrawal at 14157 nmol/kg, sc measured for 30 mins by tail-flick test relative to control. It is filed as functional. The conditions noted are these: 0.5 h.
For data set [16], the system named is Mus musculus. The data set is described as follows: Antinociceptive activity in Kunming mouse model assessed as latency of tail withdrawal at 14157 nmol/kg, sc measured for 60 mins by tail-flick test relative to control. The class given is functional. The conditions noted are these: 1 h.
Data set [17] addresses T2, Mu-type opioid receptor. In words: Agonist activity at human MOR expressed in CHO-K1 cells co-expressing G-alpha15 by calcium mobilization assay relative to control. It is filed as functional, cell-based. The conditions noted are these: filed as agonist.
Data set [18] relates to Mus musculus. In words: Antinociceptive activity in Kunming mouse model assessed as latency of tail withdrawal at 1404 nmol/kg, sc measured for 60 mins by tail-flick test relative to control. It is filed as functional. The conditions noted are these: 1 h.
The subject of data set [19] is Mus musculus. The data set is described as follows: Antinociceptive activity in Kunming mouse model assessed as latency of tail withdrawal at 1404 nmol/kg, sc measured for 120 mins by tail-flick test relative to control. The class given is functional. The conditions noted are these: 2 h.
Data set [20] has as its system Mus musculus. The data set is described as follows: Antinociceptive activity in Kunming mouse model assessed as latency of tail withdrawal at 1404 nmol/kg, sc measured for 10 mins by tail-flick test relative to control. The class given is functional.
Data set [21] concerns Mus musculus. In words: Antinociceptive activity in Kunming mouse model assessed as latency of tail withdrawal at 1404 nmol/kg, sc measured for 30 mins by tail-flick test relative to control. It is filed as functional. The conditions noted are these: 0.5 h.
Data set [22] in a line: Toxicity in Kunming mouse model assessed as effect on locomotor co-ordination at 13.8 nmol/kg, sc measured for 10 to 40 mins by rotarod test. It is filed as organism-based. Conditions: in vivo, time 10-40 min.
Data set [23] concerns Mus musculus. In words: Antinociceptive activity in Kunming mouse model assessed as latency of tail withdrawal at 15007 nmol/kg, sc measured for 10 mins by tail-flick test relative to control. It is filed as functional.
Data set [24] concerns Mus musculus. The data set is described as follows: Antinociceptive activity in Kunming mouse model assessed as latency of tail withdrawal at 15007 nmol/kg, sc measured for 120 mins by tail-flick test relative to control. The class given is functional. Conditions: 2 h.
Data set [25] deals with Mus musculus. In words: Antinociceptive activity in Kunming mouse model assessed as latency of tail withdrawal at 15007 nmol/kg, sc measured for 30 mins by tail-flick test relative to control. Conditions: 0.5 h. The class given is functional.
Data set [26] relates to Mus musculus. In words: Antinociceptive activity in Kunming mouse model assessed as latency of tail withdrawal at 15007 nmol/kg, sc measured for 60 mins by tail-flick test relative to control. The conditions noted are these: 1 h. The class given is functional.

T1 sequence (P41143 whole entry): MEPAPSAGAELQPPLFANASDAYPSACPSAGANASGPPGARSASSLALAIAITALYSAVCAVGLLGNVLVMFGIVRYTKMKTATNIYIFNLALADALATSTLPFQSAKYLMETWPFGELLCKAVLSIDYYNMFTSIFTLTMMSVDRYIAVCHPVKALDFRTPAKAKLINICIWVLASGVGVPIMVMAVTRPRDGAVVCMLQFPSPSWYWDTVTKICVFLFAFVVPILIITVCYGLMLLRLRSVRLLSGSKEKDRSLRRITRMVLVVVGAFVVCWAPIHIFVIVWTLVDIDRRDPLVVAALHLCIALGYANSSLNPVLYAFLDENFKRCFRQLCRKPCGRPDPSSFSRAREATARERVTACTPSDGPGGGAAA
T2 sequence (P35372 whole entry): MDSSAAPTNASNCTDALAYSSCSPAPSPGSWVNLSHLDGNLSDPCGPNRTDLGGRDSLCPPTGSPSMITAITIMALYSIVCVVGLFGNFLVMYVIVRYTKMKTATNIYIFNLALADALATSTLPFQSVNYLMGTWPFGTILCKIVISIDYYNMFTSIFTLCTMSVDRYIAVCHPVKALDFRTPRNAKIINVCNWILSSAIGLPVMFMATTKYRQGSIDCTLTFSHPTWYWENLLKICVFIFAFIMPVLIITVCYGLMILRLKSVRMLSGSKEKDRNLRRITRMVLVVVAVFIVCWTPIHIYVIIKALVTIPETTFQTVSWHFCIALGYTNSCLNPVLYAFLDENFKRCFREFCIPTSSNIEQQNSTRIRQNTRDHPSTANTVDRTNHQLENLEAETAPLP
Sequence of Kappa-type opioid receptor (P41145 whole entry): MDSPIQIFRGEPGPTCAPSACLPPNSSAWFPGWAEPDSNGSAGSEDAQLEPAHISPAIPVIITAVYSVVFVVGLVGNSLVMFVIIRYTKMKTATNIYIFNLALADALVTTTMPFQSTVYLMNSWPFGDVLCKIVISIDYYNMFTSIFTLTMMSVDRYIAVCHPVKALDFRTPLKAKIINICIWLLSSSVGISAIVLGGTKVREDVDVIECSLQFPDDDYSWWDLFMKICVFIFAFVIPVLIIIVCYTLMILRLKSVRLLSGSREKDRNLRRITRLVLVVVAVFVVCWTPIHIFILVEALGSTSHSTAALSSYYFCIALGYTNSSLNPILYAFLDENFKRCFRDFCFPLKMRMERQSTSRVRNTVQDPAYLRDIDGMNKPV

On to `CN1C(=O)CNC(=O)[C@H](NC(=O)[C@@H](N)Cc2ccc(O)cc2)CCCCNC(=O)C[C@@H](C(=O)N2CCC[C@@H]2C(N)=O)NC(=O)[C@@H]1Cc1ccccc1`, for which the selectivity ratio stood at 13 in [1] and 54 in data set [7]. The EC50 in data set [2] (cho-k1) was found to be 17.5 nM; in [3] it was 505 nM; on Mu-type opioid receptor [4] (cho-k1), 2.5 nM. The half-life at 0.01 mol/L in data set [5] was 21.1 h. Moreover, the Activity entry in data set [6] is recorded as “Non-Toxic”.

As for `NC(=O)[C@H]1CCCN1C(=O)[C@@H]1CC(=O)NCCCC[C@@H](NC(=O)[C@@H](N)Cc2ccc(O)cc2)C(=O)NCC(=O)N[C@@H](CCc2ccccc2)C(=O)N1`, the MPE in the data set with Mus musculus [8] was determined as 73.7%; with Mus musculus [9], 96%; with Mus musculus [10], 55%; in the data set on Mus musculus [11] it was 25.6%.

Take `N[C@@H](Cc1ccc(O)cc1)C(=O)N[C@@H]1CCCCNC(=O)C[C@H](C(=O)N2CCC[C@H]2C(=O)O)NC(=O)[C@H](Cc2ccccc2)NC(=O)CNC1=O`: the EC50 came out at 3.3 nM in data set [2] and 3.8 nM at Mu-type opioid receptor [4]. Moreover, the half-life at 0.01 mol/L in [5] was 23 h. Moreover, the MPE is reported as 37.3% in the data set on Mus musculus [12], 65% with Mus musculus [14], 97.4% in the data set on Mus musculus [15] and 77% with Mus musculus [16]. In addition, the figures for the Emax (in data set [13]; at Mu-type opioid receptor [17]) were 109% and 94.8%, respectively.

Regarding `NC(=O)[C@H]1CCCN1C(=O)[C@@H]1CC(=O)NCCCC[C@@H](NC(=O)[C@@H](N)Cc2ccc(O)cc2)C(=O)NCC(=O)N[C@@H](CC2CCCCC2)C(=O)N1`, the MPE in the data set with Mus musculus [18] was 74.3%; in the data set with Mus musculus [19], 36.1%; in the data set on Mus musculus [20] it was 61.9%; in the data set with Mus musculus [21], 92.4%.

Turning to `NC(=O)[C@H]1CCCN1C(=O)[C@@H]1CC(=O)NCCCC[C@@H](NC(=O)[C@@H](N)Cc2ccc(O)cc2)C(=O)NCC(=O)N[C@@H](Cc2ccc(F)cc2)C(=O)N1`, the selectivity ratio in data set [1] came to 22; in [7], 55. Moreover, the values for the EC50 (in data set [2] (cho-k1); in data set [3]; at Mu-type opioid receptor [4] (cho-k1)) were 0.6 nM, 92.2 nM and 0.9 nM, respectively. Further, the half-life at 0.01 mol/L in [5] is 53.5 h. Further, in data set [22], the Activity result is on record as “Non-Toxic”.

For the compound `NC(=O)CNC(=O)[C@@H]1CC(=O)NCCCC[C@@H](NC(=O)[C@@H](N)Cc2ccc(O)cc2)C(=O)NCC(=O)N[C@@H](Cc2ccccc2)C(=O)N1`, the MPE is 73.4% with Mus musculus [23], 43.1% with Mus musculus [24], 92.5% with Mus musculus [25] and 74.1% in the data set on Mus musculus [26].
